Assay results taken from ChEMBL document CHEMBL3046650, “Hydrogenated and Dichiorinated N-Phthaloyl-L-threonines and Their Dehydrated Phthalimides with Root Growth-promoting Activity for Rice Seedings” (J Pestic Sci, 2000).
The source made the active and inactive calls. The rule behind the calls is not given here.

Legend:
Vigna mungo [1] = test: Growth promoting activity in Vigna mungo (black gram) seedling hypocotyl at 1 x 10' -6 to 1 x 10' -3 M; format: functional, organism-based
Lactuca sativa [2] = test: Growth promoting activity in Lactuca sativa cv. Gokuwase-CISCO (lettuce) seedling root at 1 x 10' -6 to 1 x 10' -3 M; format: functional, organism-based
Oryza sativa [3] = test: Phytotoxicity against Oryza sativa cv. Koshihikari (rice) seedling assessed as shoot growth inhibition; format: organism-based; conditions: in vivo
Oryza sativa [4] = test: Growth promoting activity in Oryza sativa cv. Koshihikari (rice) seedling root at 1 x 10' -4 M relative to control; format: functional
Vigna mungo [5] = test: Phytotoxicity against Vigna mungo (black gram) seedling assessed as hypocotyl growth inhibition at 1 x 10' -6 to 1 x 10' -3 M; format: organism-based; conditions: in vivo
Vigna mungo [6] = test: Phytotoxicity against Vigna mungo (black gram) seedling assessed as root growth inhibition at 1 x 10' -6 to 1 x 10' -3 M; format: organism-based; conditions: in vivo
Lactuca sativa [7] = test: Phytotoxicity against Lactuca sativa cv. Gokuwase-CISCO (lettuce) seedling assessed as root necrosis at 1 x 10' -3 M; format: organism-based; conditions: in vivo, 1000 µM
Oryza sativa [8] = test: Phytotoxicity against Oryza sativa cv. Koshihikari (rice) seedling assessed as root necrosis at 1 x 10' -3 M; format: organism-based; conditions: in vivo, 1000 µM
[9] = test system: Brassica rapa subsp. pekinensis; test: Phytotoxicity against Brassica rapa subsp. pekinensis (Chinese cabbage) cv. Kinshu seedling assessed as root growth inhibition at 1 x 10' -6 to 1 x 10' -3 M; format: organism-based; conditions: in vivo
Lactuca sativa [10] = test: Phytotoxicity against Lactuca sativa cv. Gokuwase-CISCO (lettuce) seedling assessed as hypocotyl necrosis at 1 x 10' -3 M; format: organism-based; conditions: in vivo, 1000 µM
Oryza sativa [11] = test: Growth promoting activity in Oryza sativa cv. Koshihikari (rice) seedling root at 1 x 10' -5 M relative to control; format: functional, organism-based
Oryza sativa [12] = test: Growth promoting activity in Oryza sativa cv. Koshihikari (rice) seedling shoot at 1 x 10' -5 M; format: functional, organism-based
Vigna mungo [13] = test: Growth promoting activity in Vigna mungo (black gram) seedling root at 1 x 10' -6 to 1 x 10' -3 M; format: functional, organism-based
[14] = test system: Brassica rapa subsp. pekinensis; test: Growth promoting activity in Brassica rapa subsp. pekinensis (Chinese cabbage) cv. Kinshu seedling root at 1 x 10' -6 to 1 x 10' -3 M; format: functional, organism-based
Lactuca sativa [15] = test: Growth promoting activity in Lactuca sativa cv. Gokuwase-CISCO (lettuce) seedling hypocotyl at 1 x 10' -6 to 1 x 10' -3 M; format: functional, organism-based
Lactuca sativa [16] = test: Phytotoxicity against Lactuca sativa cv. Gokuwase-CISCO (lettuce) seedling assessed as hypocotyl growth inhibition at 1 x 10' -3 M; format: organism-based; conditions: in vivo, 1000 µM
[17] = test system: Brassica rapa subsp. pekinensis; test: Growth promoting activity in Brassica rapa subsp. pekinensis (Chinese cabbage) cv. Kinshu seedling root at 1 x 10' -3 M; format: functional, organism-based
[18] = test system: Brassica rapa subsp. pekinensis; test: Phytotoxicity against Brassica rapa subsp. pekinensis (Chinese cabbage) cv. Kinshu seedling assessed as root growth inhibition at 1 x 10' -4 M; format: organism-based; conditions: in vivo, 100 µM
Oryza sativa [19] = test: Phytotoxicity against Oryza sativa cv. Koshihikari (rice) seedling assessed as root growth inhibition at 1 x 10' -3 M; format: organism-based; conditions: in vivo, 1000 µM

SMILES	Activity (Vigna mungo [1])	Activity (Lactuca sativa [2])	Activity (Oryza sativa [3])	fold change (FC) (Oryza sativa [4])	Activity (Vigna mungo [5])	Activity (Vigna mungo [6])	Activity (Lactuca sativa [7])	Activity (Oryza sativa [8])	Activity [9]	Activity (Lactuca sativa [10])	Activity (Oryza sativa [11])	Activity (Oryza sativa [12])	Activity (Vigna mungo [13])	Activity [14]	Activity (Lactuca sativa [15])	Activity (Lactuca sativa [16])	Activity [17]	Activity [18]	Activity (Oryza sativa [19])
C/C=C(/C(=O)O)N1C(=O)[C@H]2CCCC[C@H]2C1=O	inactive	inactive	Non-toxic	2.1	Non-toxic	Non-toxic	Toxic	Non-toxic	Non-toxic	Toxic	inactive	Active	inactive	inactive	inactive				
C/C=C(/C(=O)O)N1C(=O)[C@H]2CC=CC[C@H]2C1=O	inactive	inactive		2.1	Non-toxic	Non-toxic	Toxic	Non-toxic			inactive		inactive		inactive	Toxic	Active		
C/C=C(/C(=O)O)N1C(=O)C2=C(CCCC2)C1=O	inactive	inactive		2.1	Non-toxic	Non-toxic	Toxic	Toxic			inactive	Active	inactive		inactive	Toxic	Active	Toxic	
C/C=C(/C(=O)O)N1C(=O)c2ccccc2C1=O	inactive	inactive		2.1	Non-toxic	Non-toxic	Toxic				Active		inactive		inactive	Toxic	Active		Toxic
C/C=C(/C(=O)O)N1C(=O)[C@H]2CCCC[C@@H]2C1=O (relative stereo)	inactive	inactive	Non-toxic	2.1	Non-toxic	Non-toxic	Toxic	Non-toxic	Non-toxic		inactive		inactive	inactive	inactive	Toxic			
C/C=C(/C(=O)O)N1C(=O)c2cc(Cl)c(Cl)cc2C1=O [4,5-Cl2P-BTEA]	inactive	inactive		2.1	Non-toxic	Non-toxic	Toxic	Non-toxic	Non-toxic	Toxic	Active		inactive	inactive	inactive				
C[C@@H](O)[C@@H](C(=O)O)N1C(=O)[C@H]2CCCC[C@H]2C1=O [CIS-1,2,3,4,5,6-HEXAHYDROPHTHALOYL-L-THREONINE]	inactive	inactive	Non-toxic	1.6	Non-toxic	Non-toxic	Toxic	Non-toxic	Non-toxic	Toxic	inactive	Active	inactive	inactive	inactive				
C[C@@H](O)[C@@H](C(=O)O)N1C(=O)[C@H]2CC=CC[C@H]2C1=O [CIS-1,2,3,6-TETRAHYDROPHTHALOYL-L-THREONINE]	inactive	inactive		1.6	Non-toxic	Non-toxic	Toxic	Non-toxic	Non-toxic	Toxic	inactive		inactive	inactive	inactive				
C[C@@H](O)[C@@H](C(=O)O)N1C(=O)c2ccccc2C1=O [N PHTHALOYL-L-THREONINE]	inactive	inactive		1.6	Non-toxic	Non-toxic	Toxic		Non-toxic		Active		inactive	inactive	inactive	Toxic			Toxic
C[C@@H](O)[C@@H](C(=O)O)N1C(=O)C2=C(CCCC2)C1=O [N-(3,4,5,6-TETRAHYDROPHTHALOYL)-L-THREONINE]	inactive	inactive		1.6	Non-toxic	Non-toxic	Toxic	Toxic	Non-toxic		inactive	Active	inactive	inactive	inactive	Toxic			
C[C@@H](O)[C@@H](C(=O)O)N1C(=O)c2cc(Cl)c(Cl)cc2C1=O [N-(4,5-DICHLOROPHTHALOYL)-L-THREONINE]	inactive	inactive		1.6	Non-toxic	Non-toxic	Toxic	Non-toxic	Non-toxic	Toxic	Active		inactive	inactive	inactive				
C[C@@H](O)[C@@H](C(=O)O)N1C(=O)[C@H]2CCCC[C@@H]2C1=O [TRANS-1,2,3,4,5,6-HEXAHYDROPHTHALOYL-L-THREONINE]	inactive	inactive	Non-toxic	1.6	Non-toxic	Non-toxic	Toxic	Non-toxic	Non-toxic		inactive		inactive	inactive	inactive	Toxic			
